According to the pKa sets of Baltruschat and Czodrowski (2020):

Row | SMILES | pKa (acidic group) | pKa (basic group)
1 | O=C1O[C@@H]([C@@H](O)CO)C([O-])=C1O | 11.3 | 
2 | C1=C(c2ccco2)C2CCN1CC2 |  | 8.92
3 | COc1cccc2ccc(C)nc12 |  | 5.69
4 | CCCCNC(=O)NS(=O)(=O)c1ccc(C)cc1 | 5.3 | 
5 | C=C1[C@@H]2CC3C4N5C[C@]6(C)C[C@@H](OC(C)=O)[C@H](OC(C)=O)[C@]47C6[C@@H]5C[C@]3([C@H]1OC(C)=O)[C@@]7(O)C2 |  | 8.35
6 | Cc1cc(C)[nH+]c([S-])n1 |  | 2.8
7 | O/C(=C/c1cc[nH+]cc1)c1ccccc1 | 4.19 | 
8 | Cc1ccc2c(c1[O-])-c1c-2ccc(C)c1O | 11.5 | 
9 | SCc1ccccc1 | 9.43 | 
10 | O=C(CN1CCCCC1)NCc1ccccc1 |  | 7.71
11 | CC(C)(C)c1ccc(C(O)CCCN2CCC(C(O)(c3ccccc3)c3ccccc3)CC2)cc1 (stereo unspecified) |  | 8.6
12 | Cc1nn(C)c2c1C(c1ccccc1F)=NCC(=O)N2C |  | 4.69
13 | O=C(O)[C@H]1CCC[C@H](O)C1 | 4.82 | 
14 | CCSCCN(CC)CC |  | 9.03
15 | CCN(CC)Cc1cc([N+](=O)[O-])c2ccccc2c1[O-] |  | 11
16 | c1ccc2c(c1)[nH]c1c2cc[n+]2cc3c(cc12)CCCC3 | 10.6 | 
17 | COc1ccc2c(c1)NCC[NH2+]2 |  | 1.93
18 | Cc1n[nH]c(C(=O)O)c1[N+](=O)[O-] | 2.26 | 
19 | c1cncc(-c2ccc[nH]2)c1 |  | 4.32
20 | O=[N+]([O-])c1ccc(-n2nnnc2/C=C/c2ccc(Cl)cc2)cc1 |  | -3.05
21 | O=C1NC(=O)C2CCC12 (stereo unspecified) | 9.63 | 
22 | CCCCOc1ccc(OCCCN2CCOCC2)cc1 |  | 6.24
23 | C[n+]1nc(-c2ccccc2)ccc1NCCN1CCOCC1 |  | 5.31

Row | SMILES | pKa (acidic group) | pKa (basic group)
24 | O=P([O-])(O)C([NH2+]Cc1ccccn1)c1ccccc1O (stereo unspecified) | 5.15 | 3.12
25 | NCCc1ccc(Br)cc1 |  | 9.65
26 | O=C(O)c1cc2ccccc2[nH]1 | 3.79 | -0.57
27 | O=[N+]([O-])c1ccc2[nH]c(-c3ccccc3)nc2c1 |  | 2.95
28 | CCN(CC)Cc1cc(Cl)cc(Cl)c1[O-] |  | 11.6
29 | CC(=O)CC(=O)c1ccc[se]1 | 8.55 | 
30 | O=C(O)Cc1[nH]c2ccccc2[nH+]1 | 0.2 | -4.7
31 | C[NH+](C)c1ccccc1C(=O)O | 1.4 | 
32 | Cc1cnc2c(c1)c(C)c(C)c1cccnc12 |  | 5.34
33 | O=C(O)c1[nH]c2ccccc2[nH+]1 | 0.4 | 
34 | COc1cc2c(cc1OC)NCC2 |  | 7.3
35 | Cc1csc(Cc2ccccc2)[n+]1C | 10.8 | 
36 | [NH3+]c1ccc(-c2ncc(-c3ccc(Cl)cc3)o2)cc1 |  | -0.1
37 | COC(=O)c1cccnc1 |  | 3.23
38 | Cc1ccc(C)nc1 |  | 6.4
39 | CNc1ccc(OC)cc1 |  | 5.93
40 | CCCCNCC(=O)[O-] |  | 10.2
41 | Cn1cnc2[nH]c(=O)[nH]c(=O)c21 | 8.45 | 0.87
42 | [NH3+]CCCCCCCCC(=O)O | 4.53 | 
43 | O=C(O)[C@@H]1C[C@@H]1Br | 4.09 | 
44 | Cc1nc2cncnc2nc1C |  | 2.93
45 | Cc1ccc(CN2CC(O[Si](C)(C)C)C2)cc1 |  | 8.24
46 | Oc1ccc2c(c1)Nc1ccccc1N2 |  | 1.8

Row | SMILES | pKa (acidic group) | pKa (basic group)
47 | CN(C)c1cccc2cccc([NH+](C)C)c12 |  | -9
48 | c1ccnnc1 |  | 2.33
49 | O=C(O)CCP | 4.23 | 
50 | Cc1ccc2c(c1)ncn2[C@H]1O[C@@H](CO)[C@H](O)[C@@H](O)[C@@H]1O |  | 4.32
51 | C[NH+](C)CCCCCCCCCCNC(=O)/C=N/O | 9.02 | 
52 | Oc1ccc2nccnc2c1 | 7.92 | 1.4
53 | O/N=C/c1ccnc2ccccc12 | 10.4 | 4.55
54 | c1ccc([P+](c2ccccc2)(c2ccccc2)C2c3ccccc3-c3ccccc32)cc1 | 8.99 | 
55 | Cc1ccc(-c2ncc(-c3ccccc3)o2)cc1 |  | 1.04
56 | CC(=O)NS(=O)(=O)c1ccsc1C(=O)O | 3.1 | 
57 | O=C(O)c1cnc(Br)s1 | 2.96 | 
58 | NCCC(=O)N[C@@H](Cc1c[nH]cn1)C(=O)[O-] |  | 9.61
59 | O=[N+]([O-])c1cc(-c2ccccc2)nnc1NCC[NH+]1CCOCC1 |  | 0.2
60 | CN(C)c1cccc2ccccc12 |  | 4.83
61 | CN1CCC(=O)NC1=O | 11.9 | 
62 | NC(=S)c1ccccc1 |  | -3.2
63 | CC(=O)Nc1ccncc1 |  | 5.87
64 | CN(C)CCCC(=O)Oc1ccc([N+](=O)[O-])cc1 |  | 9.6
65 | [NH3+]C(Cc1n[nH]c2ccccc12)C(=O)O (stereo unspecified) | 2.2 | 
66 | O=C(O)[C@]12C[NH2+]CC[C@H]1O2 | 2.63 | 
67 | CC1CC(C)C(=O)CC1=O (stereo unspecified) | 5.62 | 
68 | Cc1ccccc1/C(=N/CCCN(C)C)c1ccccc1 |  | 9
69 | NS(=O)(=O)c1cccc(Cl)c1 | 9.04 | 

Row | SMILES | pKa (acidic group) | pKa (basic group)
70 | O=[N+]([O-])c1cc(CN2CCOCC2)c([O-])c2ccccc12 |  | 7.98
71 | C#CC#CC=C=CC(O)CCC(=O)O (stereo unspecified) | 4.8 | 
72 | Cn1cnc2c(O)[nH+]cnc21 | 1.86 | 
73 | O=C(O)CC#Cc1ccccc1 | 3.44 | 
74 | CC(O)CN(Cc1ccccc1)CC(C)O (stereo unspecified) |  | 7.5
75 | C1CN(CCN2CCOCC2)CCO1 |  | 6.65
76 | O=[Se](O)c1ccccc1-c1ccccc1 | 4.67 | 
77 | Nc1ncnc([S-])c1N |  | 9.34
78 | CC(O)C[NH+](CCCN1CCOCC1)CC(C)O (stereo unspecified) |  | 5.5
79 | C[n+]1ccc2cc(O)ccc2c1 | 6.06 | 
80 | O=[N+](O)C1=CC=CC1 |  | 3.25
81 | CC(C)C1CC(CC(=O)[O-])NC1C(=O)[O-] (stereo unspecified) |  | 10.4
82 | O=C([O-])c1cnc2ccccc2c1 |  | 4.68
83 | CN(C)c1ccc(C#N)cc1 |  | 1.78
84 | O=C(Oc1ccc([N+](=O)[O-])cc1[N+](=O)[O-])c1ccc(O)cc1 | 7.68 | 
85 | CCNN(CC)CC |  | 7.08
86 | CNCc1ccccc1 |  | 9.64
87 | CCCC(O)C(C(=O)O)c1ccc(-c2ccccc2)cc1 (stereo unspecified) | 4.01 | 
88 | Nc1nc2[nH]cnc2c(O)[nH+]1 | 3 | 
89 | CC1[C@H](N)[C@H]1[NH3+] (stereo partly specified) |  | 5.9
90 | Oc1ccc(O)c2ncccc12 | 9.3 | 4.5
91 | CC(CN1c2ccccc2Sc2ccccc21)N(C)C (stereo unspecified) |  | 8.65
92 | CNc1cnccc1N |  | 9.14

Row | SMILES | pKa (acidic group) | pKa (basic group)
93 | NCC(=O)CN |  | 8.32
94 | CCOC(=O)c1ccc(CCN)cc1 |  | 9.58
95 | [O-]c1cc2nc(c1)COCCOCCSCCOCCOC2 |  | 10.1
96 | O=C(CC(=O)C(F)(F)F)c1cccs1 | 6.31 | 
97 | NCCC[NH3+] |  | 8.77
98 | Cc1cnc2c(c1)c(C)cc1c(C)ccnc12 |  | 5.9
99 | Nc1ccc[nH+]c1C(=O)O | 1.33 | 
100 | Cc1cccc(C)c1/C(=N/CCC[NH+](C)C)c1ccccc1 |  | 3.83
101 | CC(C)(C)N1NC2CCC1C21CC1 (stereo unspecified) |  | 9.33
102 | Cc1cc(-c2ccccc2)nn(CCN2CCOCC2)c1=N |  | 9.7
103 | O=C(O)c1c(O)cccc1[N+](=O)[O-] | 2.24 | 
104 | CCCP(=O)(O)CCC | 3.33 | 
105 | Cn1c(=O)c2cn[nH]c2n(C)c1=O | 9.26 | 
106 | CCCSS/C(CCO)=C(/C)N(C=O)Cc1cnc(C)nc1N |  | 5.52
107 | CCCCC/C(N)=N/N(C)C |  | 10.4
108 | C[NH+](C)CCC/N=C(\c1ccccc1)c1cccc2ccccc12 |  | 4.16
109 | CCCCOc1ccc(O)cc1 | 10.2 | 
110 | CC(C)C=O |  | 15.7
111 | Cn1nnc(CC(=O)O)n1 | 3.44 | 
112 | CN1CCCC1c1cccnc1 (stereo unspecified) |  | 8.06
113 | O=S(=O)([N-]c1ncc(Cl)cn1)c1ccc(O)cc1 | 8.84 | 
114 | NCCc1cccnc1 |  | 9.44
115 | S=c1[nH]c2ccccc2o1 | 6.33 | 

Row | SMILES | pKa (acidic group) | pKa (basic group)
116 | CC(=O)N(C)CC(=O)O | 3.16 | 
117 | CN(C)c1cccc(C#N)c1 |  | 2.97
118 | Clc1nnn[nH]1 | 2.07 | 
119 | C=C[C@]1(O)C[NH+]2CC[C@H]1C[C@@H]2[C@@H](O)c1ccnc2ccc(OC)cc12 |  | 4.12
120 | C[NH2+]CCN(C)CCN |  | 9.68
121 | O=S(=O)([O-])c1ccc2c(/N=N/c3ccc4[nH]cnc4c3)c(O)c(S(=O)(=O)[O-])cc2c1 | 9.8 | 
122 | O=CN1CCNCC1 |  | 7.98
123 | Cc1ccccc1NCCS | 9.6 | 
124 | Oc1ccc2cnc3ccccc3c2c1 | 8.43 | 5.35
125 | CN(C)c1ccc(/C=C/c2ccncc2)cc1 |  | 6.25
126 | Cc1ccc(C(=S)Nc2ccc(Cl)c(Cl)c2)cc1 | 10.2 | 
127 | c1[nH]c(Cc2c[nH]c(Cc3[nH]cc(Cc4c[nH]c[nH+]4)[nH+]3)n2)c[nH+]1 |  | 3.58
128 | COCC(=O)O | 3.53 | 
129 | C1COCCOCc2n[nH]c(n2)COCCOCCO1 | 9.55 | 2.36
130 | Cc1n[nH]c2c(NCc3ccccc3)ncnc12 |  | 4.95
131 | C=CCOc1ccc(C(=O)O)cc1 | 4.45 | 
132 | [O-]c1c(O)cccc1O | 11.2 | 
133 | O[C@H]1[C@H](O)[C@@H](n2cnc3ccccc32)OC[C@@H]1O |  | 3.92
134 | N#CCCC(=O)O | 3.98 | 
135 | Cc1cc([O-])ncn1 |  | 9
136 | O=C([O-])CCC(=O)NOCc1ccccc1 | 10.2 | 
137 | c1ccc(-c2ccc3ncc(C[NH+]4CCOCC4)n3n2)cc1 |  | 2.91
138 | OC[C@@H]1O[C@H](n2ccc3c2ncn2ccnc32)[C@@H](O)[C@H]1O |  | 5.49

Row | SMILES | pKa (acidic group) | pKa (basic group)
139 | O=C(O)C(c1ccc(-c2ccccc2)cc1)C(O)C1CCCCC1 (stereo unspecified) | 4.19 | 
140 | C1CC2CCCN2C1 |  | 11.7
141 | CN1[C@H]2CC=C(C(=O)[O-])[C@@H]1CC2 |  | 10.8
142 | COc1ccc(OC)c2c1nc(C)n2C |  | 6.12
143 | CC(C)(C)OOCC(=O)O | 3.49 | 
144 | O=C(O)C[C@]1(O)C[C@H]2CC[C@@H]1C2 | 4.57 | 
145 | O=[PH](O)C([NH2+]Cc1cccc[nH+]1)c1ccccc1O (stereo unspecified) | 2.4 | 
146 | [NH3+]C(Cc1c[nH]c2ccccc12)C(=O)O (stereo unspecified) | 2.48 | 
147 | Cc1c(Cl)c([N+](=O)[O-])cc2c1nnn2O | 3.1 | 
148 | O=C(O)CCC(=O)c1cccc2ccccc12 | 4.48 | 
149 | CCCCN/C(C)=N/N(C)C |  | 10.4
150 | Nc1ccc(-c2cnc(-c3ccc(Cl)cc3)o2)cc1 |  | 3.52
151 | O=[N+]([O-])c1ccc(O)cc1 | 7.13 | 
152 | NCC(=O)[O-] |  | 9.65
153 | Cc1cn([C@@H]2C[C@@H](O)[C@H](CO)O2)c(=O)[nH]c1=S | 8.8 | 
154 | CCC(=O)C(CCN1CCOCC1)(c1ccccc1)c1ccccc1 |  | 6.98
155 | Nc1ccc(-c2ccc(/[NH+]=C/c3ccc(O)cc3)cc2)cc1 |  | 5.05
156 | CN(C)c1ccc2c(c1)Sc1cc(N(C)C)ccc1N2 |  | 5.53
157 | C[C@@H](CC(C#N)(c1ccccc1)c1ccccc1)N(C)C |  | 8.31
